Values quoted from earlier work in PMC8619046, “ABCB1 and ABCG2 Control Brain Accumulation and Intestinal Disposition of the Novel ROS1/TRK/ALK Inhibitor Repotrectinib, While OATP1A/1B, ABCG2, and CYP3A Limit Its Oral Availability” (Pharmaceutics, 2021).

Details: cited from earlier work; for brain-to-plasma ratio: wild-type mice; for fold increase of brain-to-plasma ratio: combined genetic knockout of Abcb1 and Abcg2, mice

## C[C@@H](Oc1cc(-c2cnn(C3CCNCC3)c2)cnc1N)c1c(Cl)ccc(F)c1Cl [crizotinib]
mouse, in vivo
  fold enhancement of brain-to-plasma ratio: ~ 15 fold
  brain-to-plasma ratio: about 0.2

## C[C@H]1Oc2cc(cnc2N)-c2c(nn(C)c2C#N)CN(C)C(=O)c2ccc(F)cc21 [lorlatinib]
  fold increase of brain-to-plasma ratio: 4 fold
  brain-to-plasma ratio: 0.4

## C[C@@H]1CCc2ncc(F)cc2[C@H]2CCCN2c2ccn3ncc(c3n2)C(=O)N1 [selitrectinib]
  fold increase of brain-to-plasma ratio: 6 fold
  brain-to-plasma ratio: 0.03
